Assay results taken from patent publication US20230092890A1, “1, 3, 4-Oxadiazole derivative compounds as histone deacetylase 6 inhibitor, and the pharmaceutical composition comprising the same” (Chong Kun Dang Pharmaceutical Corp., priority 2019, published 2023).

How the values were obtained:
HDAC6 human recombinant = biological target: T1, HDAC6 human recombinant (Homo sapiens, UniProt Q9UBN7); assay: HDAC enzyme activity inhibition (in vitro), HDAC6 assay; assay type: biochemical; conditions: samples at 0.1, 1, 10, 100 and 1000 nM; 37° C. 60 minutes; fluorescence Ex 390, Em 460; read-out: HDAC6 IC50
T1 construct: purchased Calbiochem 382180
T1 sequence (Q9UBN7 1-1215): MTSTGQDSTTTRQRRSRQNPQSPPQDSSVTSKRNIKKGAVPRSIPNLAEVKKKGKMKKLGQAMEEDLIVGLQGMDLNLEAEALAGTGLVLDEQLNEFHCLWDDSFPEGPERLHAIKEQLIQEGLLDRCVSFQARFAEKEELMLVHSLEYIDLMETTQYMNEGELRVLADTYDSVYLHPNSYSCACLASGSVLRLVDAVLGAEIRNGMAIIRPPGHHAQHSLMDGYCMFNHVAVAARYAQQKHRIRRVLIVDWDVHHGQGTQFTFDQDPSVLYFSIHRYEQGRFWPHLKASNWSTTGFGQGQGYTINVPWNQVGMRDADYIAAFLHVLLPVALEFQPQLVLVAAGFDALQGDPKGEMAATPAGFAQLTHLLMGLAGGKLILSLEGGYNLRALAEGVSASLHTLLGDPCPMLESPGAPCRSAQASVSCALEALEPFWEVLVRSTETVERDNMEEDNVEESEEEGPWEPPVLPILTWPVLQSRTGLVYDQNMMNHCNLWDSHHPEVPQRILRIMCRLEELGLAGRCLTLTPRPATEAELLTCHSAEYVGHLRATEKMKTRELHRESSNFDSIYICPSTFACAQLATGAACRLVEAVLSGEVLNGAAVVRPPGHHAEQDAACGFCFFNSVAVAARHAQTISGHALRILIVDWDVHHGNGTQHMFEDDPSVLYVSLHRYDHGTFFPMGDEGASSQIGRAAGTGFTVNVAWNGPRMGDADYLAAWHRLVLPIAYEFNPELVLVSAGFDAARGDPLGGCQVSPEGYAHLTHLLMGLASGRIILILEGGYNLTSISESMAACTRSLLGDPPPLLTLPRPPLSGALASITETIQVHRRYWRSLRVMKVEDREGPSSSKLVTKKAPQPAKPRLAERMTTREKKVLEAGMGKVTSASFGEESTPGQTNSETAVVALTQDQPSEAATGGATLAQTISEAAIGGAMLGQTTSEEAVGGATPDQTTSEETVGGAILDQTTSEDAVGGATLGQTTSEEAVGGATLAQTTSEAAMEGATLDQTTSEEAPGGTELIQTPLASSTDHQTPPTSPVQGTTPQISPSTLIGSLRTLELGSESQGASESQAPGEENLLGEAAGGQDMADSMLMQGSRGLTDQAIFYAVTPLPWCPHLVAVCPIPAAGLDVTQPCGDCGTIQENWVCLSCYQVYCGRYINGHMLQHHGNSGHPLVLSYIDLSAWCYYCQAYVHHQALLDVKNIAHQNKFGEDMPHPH
How it was run: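 HDAC6 human recombinant enzyme with fluorimetric substrate; […]. Reaction 60 min at 37° C, then developer 30 min at 37° C; fluorescence read at Ex 390/Em 460.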

HDAC1 = biological target: T2, HDAC1 (Homo sapiens, UniProt Q13547); assay: HDAC enzyme activity inhibition (in vitro), HDAC1 Fluorimetric Drug Discovery Assay Kit; assay type: biochemical; conditions: samples at 100, 1000 and 10000 nM; 37° C. 60 minutes; fluorescence Ex 390, Em 460; read-out: HDAC1 IC50
T2 construct: purchased Enzolifesciences BML-AK511
T2 sequence (Q13547 whole entry): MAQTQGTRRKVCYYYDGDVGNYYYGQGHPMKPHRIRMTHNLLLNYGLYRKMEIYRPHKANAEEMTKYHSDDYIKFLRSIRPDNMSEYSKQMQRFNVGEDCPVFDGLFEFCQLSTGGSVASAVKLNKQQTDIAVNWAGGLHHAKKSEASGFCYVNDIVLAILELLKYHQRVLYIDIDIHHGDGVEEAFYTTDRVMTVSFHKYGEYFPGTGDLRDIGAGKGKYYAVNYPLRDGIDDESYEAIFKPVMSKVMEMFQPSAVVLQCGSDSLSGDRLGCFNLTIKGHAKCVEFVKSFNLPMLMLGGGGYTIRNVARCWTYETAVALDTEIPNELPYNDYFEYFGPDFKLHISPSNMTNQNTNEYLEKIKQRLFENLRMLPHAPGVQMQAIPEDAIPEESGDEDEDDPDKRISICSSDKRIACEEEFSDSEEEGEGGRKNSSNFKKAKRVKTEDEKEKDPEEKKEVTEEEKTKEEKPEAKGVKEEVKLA
How it was run: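 HDAC1 was tested at 100, 1000 and 10000 nM and recombinant human HDAC6 at 0.1, 1, 10, 100 and 1000 nM. Enzyme reactions ran 60 min at 37° C, then developer was added for 30 min at 37° C, and fluorescence (Ex 390, Em 460) was read.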

Row | Compound | IC50 (HDAC6 human recombinant) [nM] | IC50 (HDAC1) [nM]
1 | CN1CCC(n2c(=O)n(Cc3ccc(-c4nnc(C(F)F)o4)cn3)c3ccc(-c4cnoc4)cc32)CC1 [Compound 211, 1-((5-(5-(difluoromethyl)-1,3,4-oxadiazole-2-yl)pyridine-2-yl)methyl)-5-(isoxazole-4-yl)-3-(1-methylpiperidine-4-yl)-1,3-dihydro-2H-benzo[d]imidazole-2-one] | 48 | > 10000
2 | Cn1c(=O)n(Cc2ccc(-c3nnc(C(F)F)o3)cn2)c2ccc(-c3cccc4[nH]ccc34)cc21 [Compound 212, 1-((5-(5-(difluoromethyl)-1,3,4-oxadiazole-2-yl)pyridine-2-yl)methyl)-5-(1H-indole-4-yl)-3-methyl-1,3-dihydro-2H-benzo[d]imidazole-2-one] | 10 | > 10000
3 | CN1CCC(n2c(=O)n(Cc3ccc(-c4nnc(C(F)F)o4)cn3)c3cc(Cl)ccc32)CC1 [Compound 213, 5-chloro-3-((5-(5-(difluoromethyl)-1,3,4-oxadiazole-2-yl)pyridine-2-yl)methyl)-1-(1-methylpiperidine-4-yl)-1,3-dihydro-2H-benzo[d]imidazole-2-one] | 14 | > 10000
4 | CC(C)N1CCC(n2c(=O)n(Cc3ccc(-c4nnc(C(F)F)o4)cn3)c3cc(Cl)ccc32)CC1 [Compound 214, 5-chloro-3-((5-(5-(difluoromethyl)-1,3,4-oxadiazole-2-yl)pyridine-2-yl)methyl)-1-(1-isopropylpiperidine-4-yl)-1,3-dihydro-2H-benzo[d]imidazole-2-one] | 15 | > 10000
5 | CC(=O)N1CCC(n2c(=O)n(Cc3ccc(-c4nnc(C(F)F)o4)cn3)c3cc(Cl)ccc32)CC1 [Compound 215, 1-(1-acetylpiperidine-4-yl)-5-chloro-3-((5-(5-(difluoromethyl)-1,3,4-oxadiazole-2-yl)pyridine-2-yl)methyl)-1,3-dihydro-2H-benzo[d]imidazole-2-one] | 20 | > 10000
6 | CS(=O)(=O)N1CCC(n2c(=O)n(Cc3ccc(-c4nnc(C(F)F)o4)cn3)c3cc(Cl)ccc32)CC1 [Compound 216, 5-chloro-3-((5-(5-(difluoromethyl)-1,3,4-oxadiazole-2-yl)pyridine-2-yl)methyl)-1-(1-(methylsulfonyl)piperidine-4-yl)-1,3-dihydro-2H-benzo[d]imidazole-2-one] | 18 | > 10000
7 | CN1CCC(n2c(=O)n(Cc3ccc(-c4nnc(C(F)F)o4)cn3)c3cc(F)c(-c4cccc5[nH]ccc45)cc32)CC1 [Compound 217, 1-((5-(5-(difluoromethyl)-1,3,4-oxadiazole-2-yl)pyridine-2-yl)methyl)-6-fluoro-5-(1H-indole-4-yl)-3-(1-methylpiperidine-4-yl)-1,3-dihydro-2H-benzo[d]imidazole-2-one] | 6 | > 10000
8 | Cc1ccc(-c2ccc3c(c2)n(C)c(=O)n3Cc2ccc(-c3nnc(C(F)F)o3)cn2)o1 [Compound 218, 1-((5-(5-(difluoromethyl)-1,3,4-oxadiazole-2-yl)pyridine-2-yl)methyl)-3-methyl-5-(5-methylfuran-2-yl)-1,3-dihydro-2H-benzo[d]imidazole-2-one] | 44 | > 10000
9 | Cn1c(=O)n(Cc2ccc(-c3nnc(C(F)F)o3)cn2)c2ccc(-c3ccsc3)cc21 [Compound 219, 1-((5-(5-(difluoromethyl)-1,3,4-oxadiazole-2-yl)pyridine-2-yl)methyl)-3-methyl-5-(thiophene-3-yl)-1,3-dihydro-2H-benzo[d]imidazole-2-one] | 33 | > 10000
10 | Cn1c(=O)n(Cc2ccc(-c3nnc(C(F)F)o3)cn2)c2ccc(-c3ccc(S(C)(=O)=O)cc3)cc21 [Compound 220, 1-((5-(5-(difluoromethyl)-1,3,4-oxadiazole-2-yl)pyridine-2-yl)methyl)-3-methyl-5-(4-(methylsulfonyl)phenyl)-1,3-dihydro-2H-benzo[d]imidazole-2-one] | 18 | > 10000
11 | Cn1c(=O)n(Cc2ccc(-c3nnc(C(F)F)o3)cn2)c2ccc(-c3ccn[nH]3)cc21 [Compound 221, 1-((5-(5-(difluoromethyl)-1,3,4-oxadiazole-2-yl)pyridine-2-yl)methyl)-3-methyl-5-(1H-pyrazole-5-yl)-1,3-dihydro-2H-benzo[d]imidazole-2-one] | 8 | > 10000
12 | Cn1nccc1-c1ccc2c(c1)n(C)c(=O)n2Cc1ccc(-c2nnc(C(F)F)o2)cn1 [Compound 222, 1-((5-(5-(difluoromethyl)-1,3,4-oxadiazole-2-yl)pyridine-2-yl)methyl)-3-methyl-5-(1-methyl-1H-pyrazole-5-yl)-1,3-dihydro-2H-benzo[d]imidazole-2-one] | 21 | > 10000
13 | CN1CCC(n2c(=O)n(Cc3ccc(-c4nnc(C(F)F)o4)cn3)c3cc(F)c(-c4ccc(F)cc4F)cc32)CC1 [Compound 223, 1-((5-(5-(difluoromethyl)-1,3,4-oxadiazole-2-yl)pyridine-2-yl)methyl)-5-(2,4-difluorophenyl)-6-fluoro-3-(1-methylpiperidine-4-yl)-1,3-dihydro-2H-benzo[d]imidazole-2-one] | 16 | > 10000
14 | Cn1c(=O)n(Cc2ccc(-c3nnc(C(F)F)o3)cn2)c2cc(F)c(-c3cccc4[nH]ccc34)cc21 [Compound 224, 1-((5-(5-(difluoromethyl)-1,3,4-oxadiazole-2-yl)pyridine-2-yl)methyl)-6-fluoro-5-(1H-indole-4-yl)-3-methyl-1,3-dihydro-2H-benzo[d]imidazole-2-one] | 8 | > 10000
15 | Cn1c(=O)n(Cc2ccc(-c3nnc(C(F)F)o3)cn2)c2cc(F)c(-c3ccc(S(C)(=O)=O)cc3)cc21 [Compound 225, 1-((5-(5-(difluoromethyl)-1,3,4-oxadiazole-2-yl)pyridine-2-yl)methyl)-6-fluoro-3-methy 1-5-(4-(methylsulfonyl)phenyl)-1,3-dihydro-2H-benzo[d]imidazole-2-one] | 11 | > 10000
16 | Cn1ccc2cc(-c3cc4c(cc3F)n(Cc3ccc(-c5nnc(C(F)F)o5)cn3)c(=O)n4C)ccc21 [Compound 227, 1-((5-(5-(difluoromethyl)-1,3,4-oxadiazole-2-yl)pyridine-2-yl)methyl)-6-fluoro-3-methy 1-5-(1-methyl-1H-indole-5-yl)-1,3-dihydro-2H-benzo[d]imidazole-2-one] | 32 | > 10000
17 | O=c1oc2cc(Cl)c(Br)cc2n1Cc1ccc(-c2nnc(C(F)F)o2)cn1 [Compound 228, 5-bromo-6-chloro-3-((5-(5-(difluoromethyl)-1,3,4-oxadiazole-2-yl)pyridine-2-yl)methyl)benzo[d]oxazole-2(3H)-one] | 47 | > 10000
18 | O=c1oc2cc(Cl)c(-c3cccnc3)cc2n1Cc1ccc(-c2nnc(C(F)F)o2)cn1 [Compound 229, 6-chloro-3-((5-(5-(difluoromethyl)-1,3,4-oxadiazole-2-yl)pyridine-2-yl)methyl)-5-(pyridine-3-yl)benzo[d]oxazole-2(3H)-one] | 312 | > 10000
19 | O=c1sc2cc(Br)ccc2n1Cc1ccc(-c2nnc(C(F)F)o2)cn1 [Compound 230, 6-bromo-3-((5-(5-(difluoromethyl)-1,3,4-oxadiazole-2-yl)pyridine-2-yl)methyl)benzo[d]thiazole-2(3H)-one] | 16 | > 10000
20 | O=c1sc2cc(-c3cccnc3)ccc2n1Cc1ccc(-c2nnc(C(F)F)o2)cn1 [Compound 231, 3-((5-(5-(difluoromethyl)-1,3,4-oxadiazole-2-yl)pyridine-2-yl)methyl)-6-(pyridine-3-yl) benzo[d]thiazole-2(3H)-one] | 9 | > 10000
